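Compound exposure: 48 hours, 5 concentrations, 96-well plates. The concentration for 50% growth inhibition is given as GI50. At the TGI there is no net growth.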
Key:
Experiment in all cases: NCI-60 cell line screen, 48 h
[1] = test system: 786-0 renal
[2] = test system: IGROV1 ovarian
[3] = test system: SK-MEL-5 melanoma
[4] = test system: U251 CNS
[5] = test system: MALME-3M melanoma
[6] = test system: LOX IMVI melanoma
[7] = test system: NCI-H23 lung
[8] = test system: SF-295 CNS
[9] = test system: EKVX NSCLC
[10] = test system: M14 melanoma
[11] = test system: MOLT-4 leukemia
[12] = test system: HCC-2998 colon
[13] = test system: OVCAR-8 ovarian
[14] = test system: SN12C renal
[15] = test system: HOP-92 NSCLC
[16] = test system: UO-31 renal
[17] = test system: MDA-MB-231 breast
[18] = test system: CAKI-1 renal
[19] = test system: HL-60(TB) leukemia
[20] = test system: NCI/ADR-RES ovarian
[21] = test system: HT29 colon
[22] = test system: NCI-H522 lung
[23] = test system: BT-549 breast
[24] = test system: SK-MEL-2 melanoma
[25] = test system: SNB-19 CNS
[26] = test system: NCI-H226 lung
[27] = test system: TK-10 renal
[28] = test system: OVCAR-3 ovarian
[29] = test system: SF-268 CNS
[30] = test system: PC-3 prostate
[31] = test system: OVCAR-4 ovarian
[32] = test system: UACC-257 melanoma
[33] = test system: ACHN renal
[34] = test system: A549 NSCLC
[35] = test system: RXF 393 renal
[36] = test system: OVCAR-5 ovarian
[37] = test system: SNB-75 CNS
[38] = test system: NCI-H460 lung
[39] = test system: SK-OV-3 ovarian
[40] = test system: K-562 leukemia
[41] = test system: COLO 205 colon
[42] = test system: SF-539 CNS
[43] = test system: UACC-62 melanoma
[44] = test system: MDA-MB-435
[45] = test system: MCF7 breast
[46] = test system: A498 renal
[47] = test system: KM12 colon
[48] = test system: HCT-116 colon
[49] = test system: DU-145 prostate
[50] = test system: T-47D breast
[51] = test system: CCRF-CEM leukemia
[52] = test system: HCT-15 colon
[53] = test system: SK-MEL-28 melanoma
[54] = test system: HOP-62 NSCLC
[55] = test system: HS 578T breast
[56] = test system: SW-620 colon
[57] = test system: SR leukemia
[58] = test system: RPMI-8226 leukemia

SMILES: C[C@@H]1CN(Cc2ccc(/C=C/c3n[nH]c4ccc5nc(-c6cn[nH]c6C(F)(F)F)c6c(c5c34)CCCC6)cc2)C[C@H](C)O1
- GI50 [1]: 4.09 µM
- TGI [1]: 17.5 µM
- GI50 [2]: 1.33 µM
- TGI [2]: 10.7 µM
- GI50 [3]: 12.2 µM
- TGI [3]: 24.7 µM
- GI50 [4]: 5.45 µM
- TGI [4]: 19.5 µM
- GI50 [5]: 4.96 µM
- TGI [5]: 20.9 µM
- GI50 [6]: 2.33 µM
- TGI [6]: 10.8 µM
- GI50 [7]: 5.71 µM
- TGI [7]: 21.7 µM
- GI50 [8]: 3.35 µM
- TGI [8]: 18.1 µM
- GI50 [9]: 3.7 µM
- TGI [9]: 17.3 µM
- GI50 [10]: 3.19 µM
- TGI [10]: 14.6 µM
- GI50 [11]: 2.6 µM
- TGI [11]: 23.2 µM
- GI50 [12]: 2.57 µM
- TGI [12]: 10.5 µM
- GI50 [13]: 4.76 µM
- TGI [13]: 23.1 µM
- GI50 [14]: 2.46 µM
- TGI [14]: 14.9 µM
- GI50 [15]: 3.12 µM
- TGI [15]: 17.9 µM
- GI50 [16]: 2.15 µM
- TGI [16]: 14 µM
- GI50 [17]: 3.24 µM
- TGI [17]: 15.5 µM
- GI50 [18]: 2.29 µM
- TGI [18]: 11.5 µM
- GI50 [19]: 6.32 µM
- TGI [19]: 28.5 µM
- GI50 [20]: 4.76 µM
- TGI [20]: 19.9 µM
- GI50 [21]: 2.77 µM
- TGI [21]: 7.82 µM
- GI50 [22]: 2.02 µM
- TGI [22]: 16.2 µM
- GI50 [23]: 3.09 µM
- TGI [23]: 14.8 µM
- GI50 [24]: 13.5 µM
- TGI [24]: 33.8 µM
- GI50 [25]: 10.2 µM
- TGI [25]: 22.1 µM
- GI50 [26]: 6.19 µM
- TGI [26]: 32.8 µM
- GI50 [27]: 4.92 µM
- TGI [27]: 17.7 µM
- GI50 [28]: 2.96 µM
- TGI [28]: 14.6 µM
- GI50 [29]: 4.21 µM
- TGI [29]: 19.1 µM
- GI50 [30]: 3.93 µM
- TGI [30]: 18.8 µM
- GI50 [31]: 5.03 µM
- TGI [31]: 24.9 µM
- GI50 [32]: 13.3 µM
- TGI [32]: 30.9 µM
- GI50 [33]: 2.57 µM
- TGI [33]: 13.7 µM
- GI50 [34]: 2.56 µM
- TGI [34]: 15 µM
- GI50 [35]: 1.85 µM
- TGI [35]: 5.79 µM
- GI50 [36]: 4.06 µM
- TGI [36]: 16.2 µM
- GI50 [37]: 0.643 µM
- TGI [37]: 10.1 µM
- GI50 [38]: 1.35 µM
- TGI [38]: 10.2 µM
- GI50 [39]: 3.64 µM
- TGI [39]: 17.3 µM
- GI50 [40]: 2.81 µM
- TGI [40]: 24.7 µM
- GI50 [41]: 3.21 µM
- TGI [41]: 12 µM
- GI50 [42]: 2.97 µM
- TGI [42]: 14.7 µM
- GI50 [43]: 5.73 µM
- TGI [43]: 19.3 µM
- GI50 [44]: 6.81 µM
- TGI [44]: 21.2 µM
- GI50 [45]: 1.53 µM
- TGI [45]: 14.9 µM
- GI50 [46]: 1.21 µM
- TGI [46]: 6.51 µM
- GI50 [47]: 2.03 µM
- TGI [47]: 14.3 µM
- GI50 [48]: 1.37 µM
- TGI [48]: 11.3 µM
- GI50 [49]: 4.53 µM
- TGI [49]: 16.9 µM
- GI50 [50]: 6.66 µM
- TGI [50]: 26.4 µM
- GI50 [51]: 0.718 µM
- TGI [51]: 34.2 µM
- GI50 [52]: 1.76 µM
- TGI [52]: 11.3 µM
- GI50 [53]: 7.11 µM
- TGI [53]: 21.2 µM
- GI50 [54]: 4.6 µM
- TGI [54]: 30.8 µM
- GI50 [55]: 2.05 µM
- TGI [55]: 10.8 µM
- GI50 [56]: 2.02 µM
- TGI [56]: 10.1 µM

SMILES: N/C(=N\Nc1nc2cc([N+](=O)[O-])ccc2o1)c1ccccn1
- TGI [1]: 1.93 µM
- TGI [3]: 1.45 µM
- TGI [4]: 1.23 µM
- TGI [57]: 0.0696 µM
- TGI [5]: 58.4 µM
- TGI [6]: 3.68 µM
- TGI [7]: 4.26 µM
- TGI [8]: 14 µM
- TGI [9]: 0.202 µM
- TGI [13]: 10.6 µM
- TGI [14]: 3.85 µM
- TGI [15]: 5.71 µM
- TGI [17]: 2.13 µM
- TGI [18]: 8.44 µM
- TGI [20]: 4.45 µM
- TGI [23]: 3.68 µM
- TGI [24]: 2.63 µM
- TGI [26]: 38 µM
- TGI [27]: 5.51 µM
- TGI [29]: 1.62 µM
- TGI [30]: 6.14 µM
- TGI [32]: 0.341 µM
- TGI [33]: 9.6 µM
- TGI [35]: 0.497 µM
- TGI [37]: 2.13 µM
- TGI [38]: 1.19 µM
- TGI [39]: 6.38 µM
- TGI [40]: > 100 µM
- TGI [42]: 1 µM
- TGI [43]: 1.54 µM
- TGI [58]: 4.83 µM
- TGI [44]: > 100 µM
- TGI [46]: 3.6 µM
- TGI [48]: 0.222 µM
- TGI [49]: 1.11 µM
- TGI [50]: 0.796 µM
- TGI [54]: 2.8 µM
- TGI [55]: > 100 µM
- TGI [56]: > 100 µM
